Assay results as given in patent US7829331B2, “Use of urea-adjuvated polypeptides for diagnosis, prophylaxis and treatment” (priority 2002, dated 2010).

Key:
PBMC [1] = assay: IFN-γ ELIspot of PBMC incubated with urea; format: cell-based, human; details: 24 hours; for IFN-γ secretion from PBMCs: donor one
Method: Furthermore, it should be clarified by ELIspot analyses whether urea in populations of purified PBMCs triggers the secretion of cytokines, especially IFN-γ. For this purpose, 96-well nitrocellulose-coated microtitre plates, as described in detail in Example 2, were coated with a monoclonal anti-human IFN-γ antibody (Hölzl, Cologne) (5 μg/ml in PBS) and incubated overnight at 4° C. The antibody solution was pipetted off and the plates were washed four times using 200 μl PBS/formulation in each case. In a following step non-specific binding sites were blocked by adding 200 μl of blocking medium in each case (RPMI with 10% FCS) during a one-hour incubation at 37° C.
PBMC of a healthy donor ([…]) were taken up in a concentration of respectively 2×10^5 purified PBMC/150 μL in T-cell medium containing different urea concentrations (0, 0.05, 0.1, 0.2, 0.3, 0.4, 0.8, and 1.6 mol/liter) (5 replicates each) and the stimulation formulations were incubated for 24 hours in an incubator with a humidified atmosphere with 5% CO2 gassing at 37° C. An 8M urea stock solution which was mixed with 2M NaCl and 2 mM DTE was used for these experiments. The cell suspension was then drawn off and any cells still adhering were removed by washing six times (in each case 200 μl PBS with 0.1% Tween 20, 3 min incubation with washing buffer in each case). The secondary biotinylated antibody (1 μg/ml in PBS, 100 μl/formulation in each case) was then added; the plates were incubated for 2 hours at RT, then washed (6 times, 200 μl PBS/formulation in each case) and incubated for 1 hour with a streptavidin alkaline phosphatase (AP) conjugate (1 μg/ml in PBS; 100 μl/formulation in each case; Hölzl, Cologne). After a last washing step (6 times 200 μl PBS/formulation in each case), the colour reaction took place by adding the enzyme substrate NBT/BCIP (Boehringer, Mannheim). For this purpose a staining solution was prepared [200 μl NBT/BCIP-stock solution to 10 ml staining buffer (0.1 M tris-buffer, pH 9.5 with 0.05 M MgCl2, 0.1 M NaCl)] and 100 μl/formulation was used in each case.
After 10 min the calorimetric reaction was stopped by washing the plates with deionised water (Biosys 2000, BioSys, Karben).

PBMC [2] = assay: Influence of urea on the vitality of PBMC (Trypan blue counting); format: cell-based
Method: In order to test the influence of urea on the cell vitality, PBMC, as described in Example 2, were purified from the heparinised whole blood of 3 healthy donors ([…]) and respectively 1×10^6 cells in four replicates in T-cell medium (RPMI 1640 with 5% human serum, 2 mM glutamine and 100 U/ml penicillin/100 μg/ml streptomycin (all components from PanSystems, Aidenbach)) was mixed with increasing concentrations of urea (0, 0.05, 0.1, 0.2, 0.3, 0.4, 0.8 or 1.6 mol/liter) and incubated in wells of a 48-well microtitre plate for 17 hours in an incubator with humidified atmosphere and 5% CO2 gassing at 37° C. An 8M urea stock solution which was mixed with 2M NaCl and 2 mM DTE was used for these experiments. The cells were then resuspended in the cultivation formulation by repeatedly pipetting the medium on and off and the total number of cells and the ratio of the living to dead cells was determined using a Neubauer “improved” counting chamber after staining with a Trypan blue solution (0.5% w/v).

rabbit = assay: Immunisation of a rabbit with urea-adjuvated BZLF1 polypeptide, serum tested in the immunoblot; format: in vivo; details: intramuscular, 8M urea
Method: In order to test the suitability of urea-adjuvated BZLF-1 polypeptide, 30 μg of BZLF1 polypeptide in 8M urea was adjuvated with Hunters Titermax as specified by the manufacturer (Sigma) and administered intramuscularly to a rabbit. The animal was re-immunised with the same immunogen 4 and 8 week as after the basic immunisation. After a further 3 weeks, blood was taken from the animal and the serum obtained therefrom was tested in different dilutions (1:2000; 1:10000 and 1:50000) in the immunoblot for the presence of BZLF1 specific antibodies. For this purpose BZLF1 polypeptide produced recombinantly in E. coli in various concentrations (20 ng, 100 ng and 500 ng) was separated in a 12.5% SDS gel and the proteins were then transferred onto nitrocellulose. After the protein transfer the still-free protein binding sites on the nitrocellulose were saturated by incubating with a 5% solution of skimmed milk powder in TBS (500 mM NaCl, 25 mM Tris pH 7.5), shaking slightly. The Blot was then washed four times with TTBS for at least 10 min before it was incubated for 1 to 12 hours with the corresponding dilution of the rabbit serum in TBS. […]

With NC(N)=O [urea] the “IFN-γ secretion from PBMCs” value (PBMC [1]; urea 0.05 mol/liter) was 26.2 Spots/2 × 10^6 cells, the “IFN-γ secretion from PBMCs” value (PBMC [1]; urea 0.1 mol/liter) was 29.6 Spots/2 × 10^6 cells and the “IFN-γ secretion from PBMCs” value (PBMC [1]; urea 0.2 mol/liter) was 26.4 Spots/2 × 10^6 cells. For the same compound, the “IFN-γ secretion from PBMCs” value (PBMC [1]; urea 0.3 mol/liter) was 11.0 Spots/2 × 10^6 cells, the “IFN-γ secretion from PBMCs” value (PBMC [1]; urea 0.4 mol/liter) was 18.2 Spots/2 × 10^6 cells and the “IFN-γ secretion from PBMCs” value (PBMC [1]; urea 0.8 mol/liter) was 14.6 Spots/2 × 10^6 cells. The “IFN-γ secretion from PBMCs” value (PBMC [1]; urea 1.6 mol/liter) was 13.4 Spots/2 × 10^6 cells, the “release of IFN-γ from cultures of peripheral blood mononuclear cells” value (PBMC [1]; urea 0.05 to 1.6 mol/liter) was “no significantly increased release of IFN-γ” and the “number of dead cells” value (PBMC [2]) was “significantly increased number of dead cells”. For the same compound, the Living/dead (PBMC [2]; donor one, urea 0.05 mol/liter, 17 hours) was 2.2, the Living/dead (PBMC [2]; donor one, urea 0.1 mol/liter, 17 hours) was 55 and the Living/dead (PBMC [2]; donor one, urea 0.2 mol/liter, 17 hours) was 3.6. The Living/dead (PBMC [2]; donor one, urea 0.3 mol/liter, 17 hours) was 1.8, the Living/dead (PBMC [2]; donor one, urea 0.4 mol/liter, 17 hours) was 0.2 and the Living/dead (PBMC [2]; donor one, urea 0.8 mol/liter, 17 hours) was 0.04. The Living/dead (PBMC [2]; donor one, urea 1.6 mol/liter, 17 hours, 0 = exclusively dead cells) was 0, the Living/dead (PBMC [2]; donor three, urea 0.05 mol/liter, 17 hours) was 11.7 and the Living/dead (PBMC [2]; donor three, urea 0.1 mol/liter, 17 hours) was 41.3. For the same compound, the Living/dead (PBMC [2]; donor three, urea 0.2 mol/liter, 17 hours) was 30.2, the Living/dead (PBMC [2]; donor three, urea 0.3 mol/liter, 17 hours) was 9 and the Living/dead (PBMC [2]; donor three, urea 0.4 mol/liter, 17 hours) was 0.2. The Living/dead (PBMC [2]; donor three, urea 0.8 mol/liter, 17 hours) was 0.02, the Living/dead (PBMC [2]; donor three, urea 1.6 mol/liter, 17 hours, 0 = exclusively dead cells) was 0 and the Living/dead (PBMC [2]; donor two, urea 0.05 mol/liter, 17 hours) was 15.9. For the same compound, the Living/dead (PBMC [2]; donor two, urea 0.1 mol/liter, 17 hours) was 1.7, the Living/dead (PBMC [2]; donor two, urea 0.2 mol/liter, 17 hours) was 6.6 and the Living/dead (PBMC [2]; donor two, urea 0.4 mol/liter, 17 hours) was 1. For the same compound, the Living/dead (PBMC [2]; donor two, urea 0.8 mol/liter, 17 hours) was 0.1, the Living/dead (PBMC [2]; donor two, urea 1.6 mol/liter, 17 hours) was 0.06 and the “dead versus living cells in the PBMC cultures” value (PBMC [2]; from a urea concentration of 0.4 mol/liter, 17 hours, regardless of the donor) was “more dead than living cells”. For the same compound, the “ratio of living to dead cells compared to the untreated cells” value (PBMC [2]; urea 0 to 0.2 mol/liter, 17 hours) was “no significant reduction”, the “total number of cells (cytolytic effect)” value (PBMC [2]; urea concentrations above 0.3 mol/liter, 17 hours) was “significant reduction in the total number of cells” and the “toxicity of the urea contained in the injection solution for the experimental animal” value (rabbit) was “non-toxic”.
